In US20080108600A1, “Polycyclic Pyridines as Potassium Ion Channel Modulators” (Icagen, Inc., priority 2004, published 2008):
Values joined by “and” are separate entries in the source; they are usually repeats but may differ in a detail not shown here. Identical values can stand only once. Counter-ions that a name gives are not always drawn.

What was measured:
[1] = test system: learning and memory formation for a passive avoidance task in mice following electroconvulsive shock; assay: Electroconvulsive shock-passive avoidance model; details: Mus musculus, ip, passive avoidance after electroconvulsive shock, read-out: In Vivo Inhibitory Activity (minimum effective dose, (MED))
Text: 25.1 Assay for Compound Activity in an Electroconvulsive Shock-Passive/Avoidance Model
The effects of compounds of the invention were studied on learning and memory formation for a passive avoidance task in mice following electroconvulsive shock training utilizing a modification of the protocol described by Inan, et al., Eur. J. Pharmacol., (2000), 407(1-2): 159-64.

[2] = biological target: hSK2 (Homo sapiens, UniProt Q9H2S1); assay: 86Rb+ efflux assay for compound activity towards hSK channels; assay type: cell-based; details: 86Rb+ efflux stimulated with calcium ionophore; drug 0.01 to 30 μM; read-out: hSK2 Inhibitory Activity
Procedure: 24.1 Assay for Compound Activity Towards hSK Channels
Cells expressing small conductance, calcium activated potassium channels, such as SK-like channels were loaded with ^86Rb^+ by culture in media containing ^86RbCl. Following loading, the culture media was removed and the cells were washed in EBSS to remove residual traces of ^86Rb^+. Cells were preincubated with the drug (0.01 to 30 μM in EBSS) and then ^86Rb^+ efflux was stimulated by exposing cells to EBSS solution supplemented with a calcium ionophore, such as ionomycin, in the continued presence of the drug. After a suitable efflux period, the EBSS/ionophore solution was removed from the cells and the ^86Rb^+ content was determined by Cherenkov counting (Wallac Trilux). Cells were then lysed with a SDS solution and the ^86Rb^+ content of the lysate was determined. Percent ^86Rb^+ efflux was calculated according to the following equation:
(^86Rb^+ content in EBSS/(86Rb^+ content in EBSS+^86Rb^+ content of the lysate))×100

SMILES | IC50 [2] | minimal effective dose [1]
c1cc(Nc2ccc(-c3ccsc3)cn2)nc(-c2nccs2)c1 [(6-Thiazol-2-yl-pyridin-2-yl)-(5-thiophen-3-yl-pyridin-2-yl)-amine] | < 100 nM | < 2 mg/kg
c1cc(Nc2cc3c(cn2)CCCC3)nc(-c2nccs2)c1 [(5,6,7,8-Tetrahydro-isoquinolin-3-yl)-(6-thiazol-2-yl-pyridin-2-yl)-amine] | < 100 nM | < 2 mg/kg
Cc1ccc(Nc2cccc(-c3nccs3)n2)nc1 [(5-Methyl-pyridin-2-yl)-(6-thiazol-2-yl-pyridin-2-yl)-amine] | < 100 nM | 2 to 100 mg/kg
c1cc(Nc2ccc(CN3Cc4ccccc4C3)cn2)nc(-c2nccs2)c1 [[5-(1,3-Dihydro-isoindol-2-ylmethyl)-pyridin-2-yl]-(6-thiazol-2-yl-pyridin-2-yl)-amine] |  | < 2 mg/kg
COc1ccccc1-c1ccc(Nc2cccc(-c3nccs3)n2)nc1 [[5-(2-Methoxy-phenyl)-pyridin-2-yl]-(6-thiazol-2-yl-pyridin-2-yl)-amine] | 100 to 500 nM | 2 to 100 mg/kg
c1ccc(CNCc2ccc(Nc3cccc(-c4nccs4)n3)nc2)cc1 [5-[(Benzylamino)methyl]-N-[6-(1,3-thiazol-2-yl)pyridin-2-yl]pyridin-2-amine dihydrochloride] | 100 to 500 nM | 
Clc1ccc(Nc2cccc(-c3cnccn3)n2)nc1 [(5-Chloro-pyridin-2-yl)-(6-pyrazin-2-yl-pyridin-2-yl)-amine] | 100 to 500 nM | < 2 mg/kg
COCCN(C)c1ccc(Nc2nc(-c3ncc(Cl)s3)ccc2OC)nc1 [N^2-[6-(5-Chloro-thiazol-2-yl)-3-methoxy-pyridin-2-yl]-N^5-(2-methoxy-ethyl)-N^5-methyl-pyridine-2,5-diamine] | < 100 nM | 
c1cncc(-c2ccc(Nc3cccc(-c4cnccn4)n3)nc2)c1 [[3,3′]Bipyridinyl-6-yl-(6-pyrazin-2-yl-pyridin-2-yl)-amine] | < 100 nM | 
Cc1cnn(-c2cccc(Nc3ccc(Br)cn3)n2)c1 [(5-Bromo-pyridin-2-yl)-[6-(4-methyl-pyrazol-1-yl)-pyridin-2-yl]-amine] | < 100 nM | < 2 mg/kg
COc1ccc(-c2nccs2)nc1Nc1ccc(N2CCCC2=O)cn1 [1-[6-(3-Methoxy-6-thiazol-2-yl-pyridin-2-ylamino)-pyridin-3-yl]-pyrrolidin-2-one] | < 100 nM | < 2 mg/kg
Cc1cnn(-c2cccc(Nc3ccc(F)cn3)n2)c1 [(5-Fluoro-pyridin-2-yl)-[6-(4-methyl-pyrazol-1-yl)-pyridin-2-yl]-amine] | < 100 nM | 
COc1ccc(-c2nccs2)nc1Nc1ccc(-c2ccccc2)cn1 [(3-Methoxy-6-thiazol-2-yl-pyridin-2-yl)-(5-phenyl-pyridin-2-yl)-amine] | 100 to 500 nM | 
COc1ccc(-c2nccs2)nc1Nc1ccc(C(C)C)cn1 [(5-Isopropyl-pyridin-2-yl)-(3-methoxy-6-thiazol-2-yl-pyridin-2-yl)-amine] | < 100 nM and 100 to 500 nM | 
CCc1cnc(-c2cccc(Nc3ccccn3)n2)s1 [[6-(5-Ethyl-thiazol-2-yl)-pyridin-2-yl]-pyridin-2-yl-amine] | < 100 nM | 
c1cc(Nc2ccc(CN3CCc4ccccc4C3)cn2)nc(-c2nccs2)c1 [[5-(3,4-Dihydro-1H-isoquinolin-2-ylmethyl)-pyridin-2-yl]-(6-thiazol-2-yl-pyridin-2-yl)-amine] | < 100 nM | 
c1cc(Nc2ccc(-c3ccco3)cn2)nc(-c2nccs2)c1 [(5-Furan-2-yl-pyridin-2-yl)-(6-thiazol-2-yl-pyridin-2-yl)-amine] | < 100 nM | 
c1cc(Nc2nnc(C3CC3)s2)nc(-c2nccs2)c1 [(5-Cyclopropyl-[1,3,4]thiadiazol-2-yl)-(6-thiazol-2-yl-pyridin-2-yl)-amine] | 100 to 500 nM | 
Brc1ccc(Nc2cccc(-n3cccn3)n2)nc1 [(5-Bromo-pyridin-2-yl)-(6-pyrazol-1-yl-pyridin-2-yl)-amine] | < 100 nM | 
COc1ccc(-c2cnccn2)nc1Nc1ccc(C(C)C)cn1 [(5-Isopropyl-pyridin-2-yl)-(3-methoxy-6-pyrazin-2-yl-pyridin-2-yl)-amine] | 100 to 500 nM | 
CN1CCN(c2ccc(Nc3cccc(-n4cccn4)n3)nc2)CC1 [[5-(4-Methyl-piperazin-1-yl)-pyridin-2-yl]-(6-pyrazol-1-yl-pyridin-2-yl)-amine] | 500 to 1000 nM | 
c1cc(Nc2cc3ccccc3cn2)nc(-c2nccs2)c1 [Isoquinolin-3-yl-(6-thiazol-2-yl-pyridin-2-yl)-amine] | < 100 nM | 
COc1ccc(-c2ncc(Cl)s2)nc1Nc1ccccn1 [[6-(5-Chloro-thiazol-2-yl)-3-methoxy-pyridin-2-yl]-pyridin-2-yl-amine] | < 100 nM | 

Second part, led by results:

IC50 [2] | SMILES | minimal effective dose [1]
100 to 500 nM | Clc1cnc(-c2cccc(Nc3ccc(N4CCCCC4)cn3)n2)s1 [[6-(5-Chloro-thiazol-2-yl)-pyridin-2-yl]-(3,4,5,6-tetrahydro-2H-[1,3′]bipyridinyl-6′-yl)-amine] | < 2 mg/kg
< 100 nM | O=C1CCCN1c1ccc(Nc2cccc(-c3ncc(Cl)s3)n2)nc1 [1-{6-[6-(5-Chloro-thiazol-2-yl)-pyridin-2-ylamino]-pyridin-3-yl}-pyrrolidin-2-one] | < 2 mg/kg
< 100 nM | COc1ccc(-c2ncc(Cl)s2)nc1Nc1ccc(N2CCCC2)cn1 [[6-(5-Chloro-thiazol-2-yl)-3-methoxy-pyridin-2-yl]-(5-pyrrolidin-1-yl-pyridin-2-yl)-amine] | < 2 mg/kg
< 100 nM | COc1ccc(-c2nccs2)nc1Nc1ccc(N2CCCCC2)cn1 [(3-Methoxy-6-thiazol-2-yl-pyridin-2-yl)-(3,4,5,6-tetrahydro-2H-[1,3′]bipyridinyl-6′-yl)-amine] | < 2 mg/kg
< 100 nM | c1cc(Nc2ccc(CN3CCCC3)cn2)nc(-c2nccs2)c1 [(5-Pyrrolidin-1-ylmethyl-pyridin-2-yl)-(6-thiazol-2-yl-pyridin-2-yl)-amine] | < 2 mg/kg
< 100 nM | COc1ccc(-c2nccs2)nc1Nc1ccc(N2CCCC2)cn1 [(3-Methoxy-6-thiazol-2-yl-pyridin-2-yl)-(5-pyrrolidin-1-yl-pyridin-2-yl)-amine] | < 2 mg/kg
100 to 500 nM | CN1CCC(=O)N(c2ccc(Nc3cccc(-c4nccs4)n3)nc2)CC1 [1-Methyl-4-[6-(6-thiazol-2-yl-pyridin-2-ylamino)-pyridin-3-yl]-[1,4]diazepan-5-one] | < 2 mg/kg
100 to 500 nM | O=C1CNCCN1c1ccc(Nc2cccc(-c3nccs3)n2)nc1 [1-[6-(6-Thiazol-2-yl-pyridin-2-ylamino)-pyridin-3-yl]-piperazin-2-one] | < 2 mg/kg
100 to 500 nM | COc1ccc(-c2ncc(Cl)s2)nc1Nc1ccc(N2CCCCC2)cn1 [[6-(5-Chloro-thiazol-2-yl)-3-methoxy-pyridin-2-yl]-(3,4,5,6-tetrahydro-2H-[1,3′]bipyridinyl-6′-yl)-amine] | 
100 to 500 nM | Cc1cnc(-c2cccc(Nc3ccc(N4CCCCC4)cn3)n2)s1 [[6-(5-Methyl-thiazol-2-yl)-pyridin-2-yl]-(3,4,5,6-tetrahydro-2H-[1,3′]bipyridinyl-6′-yl)-amine] | 
< 100 nM | Clc1cnc(-c2cccc(Nc3ccc(N4CCCC4)cn3)n2)s1 [[6-(5-Chloro-thiazol-2-yl)-pyridin-2-yl]-(5-pyrrolidin-1-yl-pyridin-2-yl)-amine] | 
